Experimental data reported in US11098038B2, “Imidazole-based anticancer agents and derivatives thereof, and methods of making and using same” (The University of Toledo, priority 2017, dated 2021).

Tests used:
NCI-H23 = assay: NCI 60 screen, NCI-H23; type: cell-based; details: Homo sapiens, Non-Small Cell Lung
Method: (§1) The compounds synthesized were tested at the National Cancer Institute (NCI) for anti-proliferative activity in the 60 human tumor cell line assay.

RPMI-8226 = assay: NCI 60 screen, RPMI-8226; type: cell-based; details: Homo sapiens, Leukemia
Method: as §1

KM12 = assay: NCI 60 screen, KM12; type: cell-based; details: Homo sapiens, Colon
Method: as §1

T-47D = assay: NCI 60 screen, T-47D; type: cell-based; details: Homo sapiens, T47D, Breast
Method: as §1

IGROV1 = assay: NCI 60 screen, IGROV1; type: cell-based; details: Homo sapiens, IGROV-1, Ovarian
Method: as §1

MALME-3M = assay: NCI 60 screen, MALME-3M; type: cell-based; details: Homo sapiens, Melanoma
Method: as §1

MDA-MB-231/ATCC = assay: NCI 60 screen, MDA-MB-231/ATCC; type: cell-based; details: Homo sapiens, Breast
Method: as §1

NCI-H226 = assay: NCI 60 screen, NCI-H226; type: cell-based; details: Homo sapiens, Non-Small Cell Lung
Method: as §1

NCI-460 = assay: NCI 60 screen, NCI-460; type: cell-based; details: Homo sapiens, Non-Small Cell Lung
Method: as §1

HOP-92 = assay: NCI 60 screen, HOP-92; type: cell-based; details: Homo sapiens, Non-Small Cell Lung
Method: as §1

TK-10 = assay: NCI 60 screen, TK-10; type: cell-based; details: Homo sapiens, Renal
Method: as §1

HT29 = assay: NCI 60 screen, HT29; type: cell-based; details: Homo sapiens, HT-29, Colon
Method: as §1

NCI-322M = assay: NCI 60 screen, NCI-322M; type: cell-based; details: Homo sapiens, Non-Small Cell Lung
Method: as §1

HS 578T = assay: NCI 60 screen, HS 578T; type: cell-based; details: Homo sapiens, Breast
Method: as §1

SF-268 = assay: NCI 60 screen, SF-268; type: cell-based; details: Homo sapiens, CNS
Method: as §1

SK-MEL-2 [1] = assay: NCI 60 screen, SK-MEL-2 (second line); type: cell-based; details: Homo sapiens; Melanoma, SK-MEL-2 (second of two lines so named, r38)
Method: as §1

SNB-19 = assay: NCI 60 screen, SNB-19; type: cell-based; details: Homo sapiens, CNS
Method: as §1

RXF393 = assay: NCI 60 screen, RXF393; type: cell-based; details: Homo sapiens, RXF 393, Renal
Method: as §1

DU-145 = assay: NCI 60 screen, DU-145; type: cell-based; details: Homo sapiens, Prostatic
Method: as §1

HCT15 = assay: NCI 60 screen, HCT15; type: cell-based; details: Homo sapiens, HCT-15, Colon
Method: as §1

UACC-62 = assay: NCI 60 screen, UACC-62; type: cell-based; details: Homo sapiens, Melanoma
Method: as §1

786-0 = assay: NCI 60 screen, 786-0; type: cell-based; details: Homo sapiens, Renal
Method: as §1

SR = assay: NCI 60 screen, SR; type: cell-based; details: Homo sapiens, Leukemia
Method: as §1

EKVX = assay: NCI 60 screen, EKVX; type: cell-based; details: Homo sapiens, Non-Small Cell Lung
Method: as §1

SK-MEL-5 = assay: NCI 60 screen, SK-MEL-5; type: cell-based; details: Homo sapiens, Melanoma
Method: as §1

MDA-MB-468 = assay: NCI 60 screen, MDA-MB-468; type: cell-based; details: Homo sapiens, Breast
Method: as §1

LOX IMVI = assay: NCI 60 screen, LOX IMVI; type: cell-based; details: Homo sapiens, Melanoma
Method: as §1

UACC-257 = assay: NCI 60 screen, UACC-257; type: cell-based; details: Homo sapiens, Melanoma
Method: as §1

HCT-116 = assay: NCI 60 screen, HCT-116; type: cell-based; details: Homo sapiens, Colon
Method: as §1

OVCAR-5 = assay: NCI 60 screen, OVCAR-5; type: cell-based; details: Homo sapiens, Ovarian
Method: as §1

A498 = assay: NCI 60 screen, A498; type: cell-based; details: Homo sapiens, Renal
Method: as §1

ACHN = assay: NCI 60 screen, ACHN; type: cell-based; details: Homo sapiens, Renal
Method: as §1

SF-539 = assay: NCI 60 screen, SF-539; type: cell-based; details: Homo sapiens, CNS
Method: as §1

NCI/ADR-RES = assay: NCI 60 screen, NCI/ADR-RES; type: cell-based; details: Homo sapiens, Ovarian
Method: as §1

SN12C = assay: NCI 60 screen, SN12C; type: cell-based; details: Homo sapiens, Renal
Method: as §1

SK-OV-3 = assay: NCI 60 screen, SK-OV-3; type: cell-based; details: Homo sapiens, Ovarian
Method: as §1

BT-549 = assay: NCI 60 screen, BT-549; type: cell-based; details: Homo sapiens, Breast
Method: as §1

MCF7 = assay: NCI 60 screen, MCF7; type: cell-based; details: Homo sapiens, Breast
Method: as §1

COLO 205 = assay: NCI 60 screen, COLO 205; type: cell-based; details: Homo sapiens, Colon
Method: as §1

SW-620 = assay: NCI 60 screen, SW-620; type: cell-based; details: Homo sapiens, Colon
Method: as §1

PC-3 = assay: NCI 60 screen, PC-3; type: cell-based; details: Homo sapiens, Prostatic
Method: as §1

HOP-62 = assay: NCI 60 screen, HOP-62; type: cell-based; details: Homo sapiens, Non-Small Cell Lung
Method: as §1

U251 = assay: NCI 60 screen, U251; type: cell-based; details: Homo sapiens, U-251, CNS
Method: as §1

OVCAR-3 = assay: NCI 60 screen, OVCAR-3; type: cell-based; details: Homo sapiens, Ovarian
Method: as §1

NCI-H522 = assay: NCI 60 screen, NCI-H522; type: cell-based; details: Homo sapiens, Non-Small Cell Lung
Method: as §1

A549/ATCC = assay: NCI 60 screen, A549/ATCC; type: cell-based; details: Homo sapiens, Non-Small Cell Lung
Method: as §1

CCRF-CEM = assay: NCI 60 screen, CCRF-CEM; type: cell-based; details: Homo sapiens, Leukemia
Method: as §1

HCC-2998 = assay: NCI 60 screen, HCC-2998; type: cell-based; details: Homo sapiens, Colon
Method: as §1

UO-31 = assay: NCI 60 screen, UO-31; type: cell-based; details: Homo sapiens, Renal
Method: as §1

SK-MEL-2 [2] = assay: NCI 60 screen, SK-MEL-2 (first line); type: cell-based; details: Homo sapiens; Melanoma, SK-MEL-2 (first of two lines so named, r37)
Method: as §1

MDA-MB-435 = assay: NCI 60 screen, MDA-MB-435; type: cell-based; details: Homo sapiens, Melanoma
Method: as §1

SF-295 = assay: NCI 60 screen, SF-295; type: cell-based; details: Homo sapiens, CNS
Method: as §1

OVCAR-8 = assay: NCI 60 screen, OVCAR-8; type: cell-based; details: Homo sapiens, Ovarian
Method: as §1

HL-60(TB) = assay: NCI 60 screen, HL-60(TB); type: cell-based; details: Homo sapiens, Leukemia
Method: as §1

OVCAR-4 = assay: NCI 60 screen, OVCAR-4; type: cell-based; details: Homo sapiens, Ovarian
Method: as §1

CAKI-1 = assay: NCI 60 screen, CAKI-1; type: cell-based; details: Homo sapiens, Renal
Method: as §1

MOLT-4 = assay: NCI 60 screen, MOLT-4; type: cell-based; details: Homo sapiens, Leukemia
Method: as §1

SNB-75 = assay: NCI 60 screen, SNB-75; type: cell-based; details: Homo sapiens, CNS
Method: as §1

Cc1ccc(NC(=O)Cc2ccc(/C=C/C(=O)c3ncc[nH]3)cc2)cc1 [Compound 20, (E)-2-(4-(3-(1H-imidazol-2-yl)-3-oxoprop-1-en-1-yl)phenyl)-N-(p-tolyl)acetamide]
GI50 (NCI-H23): 5.85 µM
GI50 (RPMI-8226): 1.79 µM
GI50 (KM12): 3.09 µM
GI50 (T-47D): 6.47 µM
GI50 (IGROV1): 6.47 µM
GI50 (MALME-3M): 25 µM
GI50 (MDA-MB-231/ATCC): 9.46 µM
GI50 (NCI-H226): 9.59 µM
GI50 (NCI-460): 6.32 µM
GI50 (HOP-92): 1.85 µM
GI50 (TK-10): 7.93 µM
GI50 (HT29): 0.955 µM
GI50 (NCI-322M): 6.06 µM
GI50 (HS 578T): 13.6 µM
GI50 (SF-268): 5.32 µM
GI50 (SK-MEL-2 [1]): 11.5 µM
GI50 (SNB-19): 6.65 µM
GI50 (RXF393): 7.68 µM
GI50 (DU-145): 4.56 µM
melting point: 218.5 °C
GI50 (HCT15): 2.01 µM
GI50 (UACC-62): 8.29 µM
GI50 (786-0): 4.28 µM
GI50 (SR): 0.99 µM
GI50 (EKVX): 1.35 µM
GI50 (SK-MEL-5): 18.3 µM
GI50 (MDA-MB-468): 3.3 µM
GI50 (LOX IMVI): 1.29 µM
GI50 (UACC-257): 25 µM
GI50 (HCT-116): 3.28 µM
GI50 (OVCAR-5): 6.84 µM
GI50 (A498): 19.9 µM
GI50 (ACHN): 6.51 µM
GI50 (SF-539): 4.76 µM
GI50 (NCI/ADR-RES): 6.73 µM
GI50 (SN12C): 5.91 µM
GI50 (SK-OV-3): 12.8 µM
GI50 (BT-549): 6.42 µM
GI50 (MCF7): 1.15 µM
GI50 (COLO 205): 7.27 µM
GI50 (SW-620): 5.22 µM
GI50 (PC-3): 7.1 µM
GI50 (HOP-62): 5.24 µM
GI50 (U251): 1.59 µM
GI50 (OVCAR-3): 1.67 µM
GI50 (NCI-H522): 4.54 µM
GI50 (A549/ATCC): 9.14 µM
GI50 (CCRF-CEM): 4.67 µM
GI50 (HCC-2998): 6.73 µM
GI50 (UO-31): 3.01 µM
GI50 (SK-MEL-2 [2]): 18.1 µM
GI50 (MDA-MB-435): 5.68 µM
GI50 (SF-295): 7.9 µM
GI50 (OVCAR-8): 7.24 µM
GI50 (HL-60(TB)): 5.88 µM
GI50 (OVCAR-4): 10.4 µM
GI50 (CAKI-1): 9.63 µM
GI50 (MOLT-4): 5.33 µM
GI50 (SNB-75): 7 µM
